According to the supplement of paper PMC10307832:

Key:
Assay in all cases: relative viability (nuclei count vs DMSO), 5 days (fraction); higher = more cells survive
CX-5461 + Palbociclib = compound: Cc1cnc(CNC(=O)c2c(=O)c3ccc(N4CCCN(C)CC4)nc3n3c2sc2ccccc23)cn1 [CX-5461] + CC(=O)c1c(C)c2cnc(Nc3ccc(N4CCNCC4)cn3)nc2n(C2CCCC2)c1=O [Palbociclib] (partner 0.5 µM)
Outline: (§1)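 After 5 days of treatment, lung cancer cells in 1536-well plates were fixed and stained in a single step (final 0.05% Triton X-100, 1% formaldehyde, 1 ug/ml Hoechst) and their nuclei counted on 4× images. Treatment had been applied by pin tool the day after seeding as one drug alone or as a fixed anchor-drug dose with five library-drug doses (not always all listed) in √10 steps. Relative viability is the nuclei count of treated wells divided by that of vehicle wells, and values are medians of duplicate plates.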

IMD-0354 + Vorinostat = compound: O=C(Nc1cc(C(F)(F)F)cc(C(F)(F)F)c1)c1cc(Cl)ccc1O [IMD-0354] + O=C(CCCCCCC(=O)Nc1ccccc1)NO [Vorinostat] (partner 1 µM)
Outline: as §1

IMD-0354 + Bortezomib = compound: O=C(Nc1cc(C(F)(F)F)cc(C(F)(F)F)c1)c1cc(Cl)ccc1O [IMD-0354] + CC(C)C[C@H](NC(=O)[C@H](Cc1ccccc1)NC(=O)c1cnccn1)B(O)O [Bortezomib] (partner 0.002 µM)
Outline: as §1

CX-5461 + Crizotinib = compound: Cc1cnc(CNC(=O)c2c(=O)c3ccc(N4CCCN(C)CC4)nc3n3c2sc2ccccc23)cn1 [CX-5461] + C[C@@H](Oc1cc(-c2cnn(C3CCNCC3)c2)cnc1N)c1c(Cl)ccc(F)c1Cl [Crizotinib] (partner 1 µM)
Outline: as §1

Row | Cell Line | relative viability (CX-5461 + Palbociclib; first compound 0.01 µM) | relative viability (CX-5461 + Palbociclib; first compound 0.03162 µM) | relative viability (CX-5461 + Palbociclib; first compound 0.1 µM) | relative viability (CX-5461 + Palbociclib; first compound 1 µM) | relative viability (IMD-0354 + Vorinostat; first compound 0.04 µM) | relative viability (IMD-0354 + Vorinostat; first compound 0.1265 µM) | relative viability (IMD-0354 + Vorinostat; first compound 0.4 µM) | relative viability (IMD-0354 + Vorinostat; first compound 1.265 µM) | relative viability (IMD-0354 + Vorinostat; first compound 4 µM) | relative viability (IMD-0354 + Bortezomib; first compound 0.04 µM) | relative viability (IMD-0354 + Bortezomib; first compound 0.1265 µM) | relative viability (IMD-0354 + Bortezomib; first compound 0.4 µM) | relative viability (IMD-0354 + Bortezomib; first compound 1.265 µM) | relative viability (IMD-0354 + Bortezomib; first compound 4 µM) | relative viability (CX-5461 + Crizotinib; first compound 0.01 µM) | relative viability (CX-5461 + Crizotinib; first compound 0.03162 µM) | relative viability (CX-5461 + Crizotinib; first compound 0.1 µM) | relative viability (CX-5461 + Crizotinib; first compound 0.3162 µM) | relative viability (CX-5461 + Crizotinib; first compound 1 µM) | relative viability (CX-5461 + Palbociclib; first compound 0.3162 µM)
1 | NCI-H522 | 1.04 | 0.957 | 1.18 | 0.993 | 1.02 | 0.865 | 0.637 | 0.757 | 0.449 |  |  |  |  |  |  |  |  |  |  | 
2 | NCI-H596 |  |  |  |  | 0.631 | 0.694 | 0.413 | 0.671 | 0.461 | 0.931 | 1.15 | 0.846 | 1.08 | 0.629 | 0.981 | 0.972 | 0.973 | 1.19 | 0.907 | 
3 | NCI-H1299 |  |  |  |  |  |  |  |  |  | 0.938 | 0.965 | 0.841 | 0.438 | 0.193 | 0.961 | 0.99 | 0.991 | 0.959 | 0.863 | 
4 | NCI-H1395 | 0.624 | 0.599 | 0.586 | 0.498 | 0.873 | 0.691 | 0.616 | 0.375 | 0.408 |  |  |  |  |  |  |  |  |  |  | 0.572
5 | NCI-H1563 |  |  |  |  |  |  |  |  |  | 1.01 | 0.927 | 0.768 | 0.403 | 0.38 | 0.865 | 0.725 | 0.774 | 0.675 | 0.464 | 
6 | NCI-H1648 | 0.32 | 0.267 | 0.254 | 0.284 | 0.303 | 0.694 | 0.289 | 0.617 | 0.3 |  |  |  |  |  |  |  |  |  |  | 0.274
7 | NCI-H1703 |  |  |  |  |  |  |  |  |  | 0.234 | 0.3 | 0.352 | 0.168 | 0.102 | 0.783 | 0.852 | 0.77 | 0.663 | 0.343 | 
8 | NCI-H1792 | 0.608 | 0.719 | 0.736 | 0.602 |  |  |  |  |  | 1.11 | 0.815 | 0.688 | 0.635 | 0.321 | 0.957 | 0.979 | 0.949 | 0.978 | 0.913 | 0.736
9 | NCI-H1793 | 0.307 | 0.306 | 0.345 | 0.283 | 0.698 | 0.949 | 0.461 | 0.262 | 0.287 |  |  |  |  |  |  |  |  |  |  | 0.32
10 | NCI-H1944 | 0.335 | 0.362 | 0.338 | 0.317 | 0.496 | 0.575 | 0.384 | 0.251 | 0.148 |  |  |  |  |  | 1.16 | 1.38 | 1.18 |  | 1.05 | 0.294
11 | NCI-H2170 | 0.412 | 0.361 | 0.414 | 0.422 | 0.859 | 0.89 | 0.573 | 0.74 | 0.231 |  |  |  |  |  | 1.17 | 1.29 | 1.28 | 1.18 | 1.09 | 0.406
12 | NCI-H2342 | 0.513 | 0.505 | 0.486 | 0.522 | 0.769 | 0.853 | 0.53 | 0.697 | 0.364 |  |  |  |  |  |  |  |  |  |  | 0.531
13 | SK-MES-1 | 0.299 | 0.308 | 0.281 | 0.249 | 1.4 | 1.09 | 0.693 | 0.305 | 0.192 |  |  |  |  |  | 0.969 | 1.14 | 1.01 | 0.958 | 0.948 | 0.342
14 | SW 900 | 0.533 | 0.538 |  | 0.519 | 0.496 | 0.554 | 0.243 | 0.227 | 0.265 |  |  |  |  |  |  |  |  |  |  | 0.621
